This is an account of results in patent US4438136A, “Prostaglandins” (National Research Development Corporation, priority 1979, dated 1984).

Molecules are shown by their SMILES. A value given as a limit tells only on which side of the number the result lay.

One experiment concerns the target T1, Rabbit Aorta (Oryctolagus cuniculus, UniProt Q6WQI8).
T1 construct: contraction by 11,9-(epoxymethano)PGH2 (U-46619)
T1 sequence (Q6WQI8 1-233): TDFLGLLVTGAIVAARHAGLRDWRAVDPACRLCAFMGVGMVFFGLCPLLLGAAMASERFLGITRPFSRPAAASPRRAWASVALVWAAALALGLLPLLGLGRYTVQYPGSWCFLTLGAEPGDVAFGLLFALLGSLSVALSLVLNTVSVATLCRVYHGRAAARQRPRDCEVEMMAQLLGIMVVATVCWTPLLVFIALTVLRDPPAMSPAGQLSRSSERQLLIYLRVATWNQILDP
The experiment can be described thus: Rabbit Aorta System: antagonism of contraction of aorta strips induced by 11,9-(epoxymethano) PGH2. The class given is cell-based. Conditions: for Kb: read-out: AFFINITY CONSTANTS (KB) Rabbit Aorta (converted); for antagonist/agonist character in rabbit aorta strip test: in words. An excerpt:
(§1) It is believed that such inhibition is the result of the compounds being thromboxane antagonists and the activity of the compounds is for convenience hereinafter discussed in these terms. […] The related compounds described and claimed in our copending application Ser. No. 431,554 filed Sept. […] Structural features which tend to endow these compounds with a more pure antagonist form of activity are described in that application. It has been found, however, that the compounds of the present invention generally show little tendency to deviate from pure antagonist activity. Activity has also been observed on compounds according to the present invention on guinea pigs tracheal muscle.
(§2) Various of the compounds described in Examples 1 to 3 are tested for biological activity in the human platelet and rabbit aorta systems.
(§3) [B]=molar concentration of compound
Spiral strips of thoracic aorta are suspended in Kreb's-Henseleit solution and aerated with 95% O2 /5% CO2 at 37° C. Tension changes are recorded with a Grass FTO3 force transducer. Initially, cumulative dose response curves to 11,9-(epoxymethano) PGH2 (2×10^-9, 1×10^-8, 5×10^-8 and 2.5×10^-7 M) are obtained. In a second experiment the individual compounds are added 30 mins previous to the addition of the series of agonist doses. Affinity constants are calculated as above.

In experiment [1] the target is T2, Human Platelets (Homo sapiens, UniProt P21731).
T2 construct: Platelet-rich plasma is obtained from fresh, citrated human blood; endogenous in cells; host or cells: human platelets (platelet-rich plasma from citrated blood)
T2 sequence (P21731 1-343): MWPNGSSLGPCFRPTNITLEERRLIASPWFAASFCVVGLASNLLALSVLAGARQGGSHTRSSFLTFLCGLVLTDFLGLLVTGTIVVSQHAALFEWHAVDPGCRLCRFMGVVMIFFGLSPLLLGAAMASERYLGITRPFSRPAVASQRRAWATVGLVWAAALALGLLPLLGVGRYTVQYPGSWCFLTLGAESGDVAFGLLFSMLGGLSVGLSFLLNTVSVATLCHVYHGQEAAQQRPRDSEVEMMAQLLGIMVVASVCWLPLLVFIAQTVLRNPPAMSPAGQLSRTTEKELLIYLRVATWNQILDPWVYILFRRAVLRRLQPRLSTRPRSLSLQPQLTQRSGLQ
Description: Human Platelet System: antagonism of platelet aggregation induced by 11,9-(epoxymethano) PGH2. Format: cell-based. The note with it: for Kb: vs 11,9-epoxymethano PGH2 (1×10^-7 to 5×10^-7 M), compound added 5 minutes before, Gaddum-Schild, read-out: AFFINITY CONSTANTS (KB) Human Platelets (converted); for inhibition of aggregatory activity of 11,9-(epoxymethano) PGH2 / antagonism in platelet test: human platelets in vitro, in words.
Description: as §1, §2
Platelet-rich plasma is obtained from fresh, citrated human blood. Addition of the 11,9-epoxymethano analogue of PGH2 (1×10^-7 to 5×10^-7 M) causes immediate aggregation recorded as an increase in light transmission (600 nm). In a second experiment the individual compounds are added 5 minutes previously to addition of the PGH2 analogue. The dose of the PGH2 analogue added is then increased to a level which gives a similar response to that obtained in the absence of antogonist. The affinity constant, KB, for the compound is calculated according to the Gaddum-Schild Equation (based on Law of Mass Action).
as §3

Another experiment deals with platelet. The experiment can be described thus: Block of aggregatory action of arachidonic acid on platelets. Format: cell-based, human. Conditions: in words.
A further experiment deals with α-adrenoceptors. The experiment can be described thus: Block of contractile action of noradrenaline (α-adrenoceptors). Format: cell-based, rabbit. Conditions: in words.
Experiment [2] relates to Human Platelets. Description: Antagonism of ADP aggregatory action on platelets. Format: cell-based.
The mark [3] stands for this setting: vs 11,9-(epoxymethano) PGH2, compound added 30 mins before, Gaddum-Schild.

A word on the Kb: it is the equilibrium dissociation constant of an antagonist, usually derived from a functional assay. Take `O=C(O)CCC/C=C\C[C@H]1[C@H]2CC[C@H](C2)[C@@H]1C=NNC(=O)c1ccc(F)cc1` (relative stereo) [drawing 24]: the Kb on Rabbit Aorta (setting [3]) is 1280 nM; on Human Platelets [1], 4760 nM.

As to `O=C(O)CCC/C=C\C[C@H]1[C@H]2CC[C@H](C2)[C@@H]1C=NNC(=O)Nc1ccccc1` (relative stereo) [Example 3, 5-endo-(6'-carboxyhex-2'Z-enyl)-6-exo-[N-(phenylcarbamoyl)-hydrazonomethyl]-bicyclo[2,2,1]heptane], on Rabbit Aorta, the “antagonist/agonist character in rabbit aorta strip test” value is given as “pure antagonists in the rabbit aorta strip test”. Further, in the experiment with platelet, the “block of aggregatory action of arachidonic acid” value is recorded as “block the aggregatory action of archidonic acid”. In addition, the “inhibition of aggregatory activity of 11,9-(epoxymethano) PGH2 / antagonism in platelet test” value against Human Platelets [1] is given as “antagonists in the platelet test”. The “block of contractile action of noradrenaline” value with α-adrenoceptors was “do not block the contractile action of noradrenaline”.

Regarding `O=C(O)CCC/C=C\C[C@H]1[C@H]2CC[C@H](C2)[C@@H]1C=NNC(=O)COc1ccccc1` (relative stereo), the Kb on Rabbit Aorta (setting [3]) is 2700 nM; on Human Platelets [1], 19200 nM.

On to `CN(C)c1ccc(C(=O)NN=C[C@H]2[C@@H]3CC[C@@H](C3)[C@@H]2C/C=C\CCCC(=O)O)cc1` (relative stereo), for which, on Rabbit Aorta (setting [3]), the “AFFINITY CONSTANTS (KB) Rabbit Aorta” value was below 2.5e-05 L/mol. Moreover, on Human Platelets [1], the Kb is 10000 nM.

With `O=C(O)CCCCCC[C@H]1[C@H]2CC[C@H](C2)[C@@H]1C=NNC(=O)Nc1ccccc1` (relative stereo), the antagonist dissociation constant (Kb) is 1200 nM on Rabbit Aorta (setting [3]) and 1450 nM on Human Platelets [1].

Turning to `O=C(O)CCC/C=C\C[C@H]1[C@H]2CC[C@H](C2)[C@@H]1C=NNC(=O)CC(c1ccccc1)c1ccccc1` (relative stereo), the Kb on Rabbit Aorta (setting [3]) is 1520 nM; at Human Platelets [1] it was 500 nM.

For `COc1ccc(C(=O)NN=C[C@H]2[C@@H]3CC[C@@H](C3)[C@@H]2C/C=C\CCCC(=O)O)cc1` (relative stereo), the Kb on Rabbit Aorta (setting [3]) was 5000 nM.

`O=C(O)CCC/C=C\C[C@H]1[C@H]2CC[C@H](C2)[C@@H]1C=NNC(=O)c1ccc(F)cc1` (relative stereo) [Example 1, 5-endo-(6'-Caboxyhex-2'Z-enyl)-6-exo-(N-p-fluorobenzoylhydrazonomethyl)-bicyclo[2,2,1]heptane]: the “antagonist/agonist character in rabbit aorta strip test” value at Rabbit Aorta is “pure antagonists in the rabbit aorta strip test”. Further, in the experiment on platelet, the “block of aggregatory action of arachidonic acid” value was “block the aggregatory action of archidonic acid”. Besides, the “inhibition of aggregatory activity of 11,9-(epoxymethano) PGH2 / antagonism in platelet test” value against Human Platelets [1] is reported as “antagonists in the platelet test”. Besides, the “block of contractile action of noradrenaline” value in the experiment with α-adrenoceptors is listed as “do not block the contractile action of noradrenaline”.

`O=C(O)CCC/C=C\C[C@H]1[C@H]2CC[C@H](C2)[C@@H]1C=NNC(=O)Nc1ccccc1` (relative stereo) [drawing 31]: the figures for the Kb on Rabbit Aorta (setting [3]) and on Human Platelets [1] were 769 nM and 1430 nM, respectively.

Consider `O=C(O)CCC/C=C\C[C@H]1[C@H]2CC[C@H](C2)[C@@H]1C=NNC(=O)Cc1ccccc1` (relative stereo), for which the Kb on Rabbit Aorta (setting [3]) was 1490 nM.

Turning to `O=C(O)CCC/C=C\C[C@H]1[C@H]2CC[C@H](C2)[C@@H]1C=NNC(=O)C(c1ccccc1)c1ccccc1` (relative stereo), the Kb was 256 nM on Rabbit Aorta (setting [3]); 8330 nM in the experiment on Human Platelets [2] (antagonism of ADP, table head gives liters/mole, 5 min); 1390 nM on Human Platelets [1]. Moreover, the “antagonism of ADP” value with Human Platelets [2] (in words) was “Slight antagonism of ADP”.
